Assay [1] has as its system Male NMRI mice. Nature of the assay: Amphetamine sensitisation: inhibition of the sensitised behavioural response to amphetamine. In kind it is in vivo, mouse. The settings on record: Mus musculus; amphetamine-pretreated mice; s.c. 30 min before D-amphetamine challenge 1.25 mg/kg s.c.; 30 min test; S.D. in brackets. As to the method: Subjects. […] The animals were housed 6 mice pr cage in a 12-hr light/dark cycle under controlled conditions for regular in-door temperature (21±2° C.) and humidity (55±5%) with food and tap water available ad libitum.
Experimental procedure. […] 5×8 infrared light sources and photocells interspaced by 4 cm monitor the locomotor activity.
Administration of compounds.
Data analyses. […] A therapeutic index value can subsequently be calculated by dividing the first ED50 by the second.

Assay [2] relates to Male Wistar rats. The experiment in a line: Amphetamine challenge: antagonism of d-amphetamine induced hyperactivity. It counts as in vivo. Conditions: rat; s.c. 30 min before d-amphetamine sulphate 0.5 mg/kg; motility over 2 hours; std. dev. in brackets. As to the method:
Subjects. Male Wistar rats (Taconic, Denmark) weighing 170-240 g are used. The animals were housed under a 12-hr light/dark cycle under controlled conditions for regular in-door temperature (21±2° C.) and humidity (55±5%) with food and tap water available ad libitum. Eight rats were used at each dose level and in the parallel control group receiving the vehicle to the test compound plus d-amphetamine and the group receiving vehicle injections only.
Experimental procedure. The experiment was made in normal light conditions in an undisturbed room. The test substance was injected 30 min before s.c. before the injection of d-amphetamine sulphate (0.5 mg/kg). Immediately after injection of d-amphetamine, the rats were placed individually in the test cages that were placed in a U-frame, equipped with 4 infrared light sources and photocells. The light beams crossed the cage 4 cm above the cage floor. Recording of a motility count required interruption of adjacent light beams, thus avoiding counts induced by stationary movements of the rat. Motility (counts) was recorded for a period of 2 hours. The mean motility induced by vehicle (saline) treatment in the absence of d-amphetamine was used as baseline. The 100 percent effect of d-amphetamine was accordingly calculated to be total motility counts minus baseline. The response in groups receiving test compound was thus determined by the total motility counts minus baseline, expressed in percent of the similar result recorded in the parallel amphetamine control group. The percent responses were converted to percent inhibition from which ED50 values were calculated by means of log-probit analyses. In a parallel set of data, the potential sedative properties (motility inhibition) of the test compounds were evaluated using essentially the same procedure with the exception of not administering d-amphetamine-sulphate at the initiation of locomotor assessment.

Assay [3] relates to DA neurons in the VTA. Nature of the assay: Electrophysiology: spontaneous DA cell firing in the VTA of anaesthetised rats. It counts as in vivo, rat. The settings on record: mean ± SEM. As to the method: Subjects. Male Wistar rats (Harlan, The Netherlands) weighing 270-340 g were used. The animals were housed under a 12-hr light/dark cycle under controlled conditions for regular in-door temperature (21±2° C.) and humidity (55±5%) with food and tap water available ad libitum.
Experimental procedure. The rats were anaesthetised with an intraperitoneal injection of chloral hydrate (400 mg/kg). A femoral vein catheter was then inserted for supplementary anaesthetic injections (100 mg/kg) and drug administration. Animals were then mounted in a stereotaxic frame, the skull was exposed, and a hole (0.5×0.5 cm) was drilled above the ventral tegmental area. Extracellular single-cell recordings were performed using electrodes pulled from glass capillaries and filled with 2% Pontamine Sky Blue in 2 M NaCl. The tip of the electrode was broken under microscopic control, yielding an impedance of 2.0-8.0 MΩ a 135 Hz. The electrode was then lowered into the brain, using a hydraulic microdrive, aimed at the following coordinates: 5.5-5.0 mm posterior to Bregma; 0.5-0.9 mm lateral to the midline. Extracellular action potentials were amplified, discriminated and monitored on an oscilloscope and an audiomonitor. Discriminated spikes were collected and analysed using Spike 2 software (Cambridge Electronic Design Ltd., Cambridge, UK) on a PC-based system connected to a CED 1401 interface unit (Cambridge Electronic Design Ltd.). Presumed dopaminergic neurons were typically found 7.0-8.5 mm beneath the brain surface and were characterised by (1) a slow and irregular firing pattern (0.5-10 Hz), and (2) triphasic action potentials with a predominant positive component, a negative component followed by a minor positive component, with an overall duration >2.5 ms (Bunney et al. 1973, J. Pharmacol. Exp. They., 185, 560-571.).
Administration of compounds. Once a stable basal firing rate was obtained, cumulated doses of N-(2,6-Dimethyl-4-morpholin-4-yl-phenyl)-3,3-dimethyl-butyramide ([…]; volume range 0.12-1.0 ml/kg) were administered i.v., each injection being separated by at least 3 min. These i.v. doses match the s.c. dose range of 0-10 mg/kg.
Statistical analysis. Drug effects were assessed by statistical comparison of the mean firing rate calculated from the 2-3 min period immediately before the first drug administration (baseline) to the mean firing rate calculated from at least 60 s at the maximal drug effect. Data were analysed statistically by a one-way ANOVA followed by Student-Newman-Keuls posthoc test. A p-value less than 0.05 was considered significant.

Regarding `Cc1cc(N2CCOCC2)cc(C)c1NC(=O)CC(C)(C)C` [N-(2,6-dimethyl-4-morpholin-4-yl-phenyl)-3,3-dimethyl-butyramide], the 50% effective dose (ED50) was determined as 1.6 mg/kg in assay [1] and 2.1 mg/kg in assay [2]. For the same compound, the “Spontaneous DA cell firing rate as a percentage of baseline firing rate” value in assay [3] (cumulated dose 0.03 mg/kg i.v.) is on record as 89.8 ± 4.5 (5) percentage of baseline firing rate; in assay [3] (cumulated dose 0.1 mg/kg i.v.), 81.0 ± 4.0 (5) percentage of baseline firing rate; in assay [3] (cumulated dose 0.25 mg/kg i.v.) it was 74.1 ± 6.3 (4) percentage of baseline firing rate; in assay [3] (cumulated dose 0.5 mg/kg i.v.), 68.1 ± 6.0 (4) percentage of baseline firing rate; in assay [3] (cumulated dose 1.0 mg/kg i.v.), 57.1 ± 7.9 (3) percentage of baseline firing rate.

For orientation: ED50 means the dose that gives a 50% effect, or the effect in half of the subjects.

The values are drawn from patent US20120165325A1, “Stable forms of N-(2,6-Dimethyl-4-morpholin-4-yl-phenyl)-3,3-dimethyl-butyramide” (H. Lundbeck A/S, priority 2009, published 2012).
